Test results from PMC4786259 (PLoS ONE, 2016).
“Also recorded” adds a separate entry of the source. Like-named read-outs stand apart in the source and are kept apart here.

Tests used:
male C57BL/6J mice [1] = experiment: Catalepsy, inclined screen test; settings: for latency to movement: nuciferine 10.0 mg/kg i.p.
male C57BL/6J mice [2] = experiment: PCP-induced hyperlocomotor activity (open field); assay type: in vivo
Procedure: Locomotor activity was assessed in AccuScan activity monitors (41X41X30 cm; AccuScan Instruments, Columbus, OH) with photocells spaced at 1.52 cm as described. In these monitors, the photocells create a grid of light beams, and breaks in the light beams (caused by the mouse) are recorded. The Accuscan software then calculates the total distance travelled (amongst other measurements) by analyzing the sequential order of beam breaks in the grid. Horizontal activity was measured as the total distance traveled in centimeters and was recorded in 5-minute bins. PCP-induced hyperlocomotor activity: mice (n = 16) previously acclimated to activity chambers were placed into the chambers for 15 minutes. […] Subsequently, mice were injected with 6.0 mg/kg PCP (i.p.) and returned to the chamber for 90 minutes. Induction of AMPH-induced hyperlocomotor activity followed an identical protocol except locomotor activity was recorded for a total of 75 minutes and 3 mg/kg AMPH was used (i.p.).

5-HT6 = target: T1, 5-HT6 (Homo sapiens, UniProt P50406); experiment: PDSP radioligand competition binding; settings: radioligand [^3H]LSD; read-out: In Vitro Affinity
T1 construct: expressed in transfected cells

5-HT2A = target: T2, 5-HT2A (Homo sapiens, UniProt P28223); experiment: PDSP receptor functional assay; assay type: cell-based
T2 construct: expressed in transfected cells

H2 = H2 (Homo sapiens, UniProt P25021); experiment: PDSP radioligand competition binding; settings: radioligand [^3H]Cimetidine; read-out: In vitro Affinity
α1A = α1A (Homo sapiens, UniProt P35348); experiment: PDSP radioligand competition binding; settings: radioligand [^3H]Prazosin; read-out: In vitro Affinity
5-HT5A = 5-HT5A (Homo sapiens, UniProt P47898); experiment: PDSP radioligand competition binding; settings: radioligand [^3H]LSD; read-out: In vitro Affinity
male C57BL/6J mice [3] = experiment: DOI-induced head-twitch response; assay type: in vivo
hVMAT2 = target: T3, hVMAT2 (Homo sapiens, UniProt Q05940); experiment: Vesicular 3H-DA uptake in vesicles isolated from HEK cells overexpressing VMAT2; assay type: biochemical
T3 construct: expressed in transfected cells; pcDNA3.1 construct with zeocin resistance

β3-AR = β3-AR (Homo sapiens, UniProt P13945); experiment: PDSP radioligand competition binding; settings: radioligand [^3H]CGP12177; read-out: In vitro Affinity
β1-AR = β1-AR (Homo sapiens, UniProt P08588); experiment: PDSP radioligand competition binding; settings: radioligand [^3H]CGP12177; read-out: In vitro Affinity
α1B = α1B (Homo sapiens, UniProt P35368); experiment: PDSP radioligand competition binding; settings: radioligand [^3H]Prazosin; read-out: In vitro Affinity
D5 = D5 (Homo sapiens, UniProt P21918); experiment: PDSP receptor functional assay; assay type: cell-based
5-HT7 = target: T4, 5-HT7 (Homo sapiens, UniProt P34969); experiment: PDSP radioligand competition binding; settings: radioligand [^3H]LSD; read-out: In Vitro Affinity
T4 construct: expressed in transfected cells

5-HT1D = 5-HT1D (Homo sapiens, UniProt P28221); experiment: PDSP radioligand competition binding; settings: radioligand [^3H]5-CT; read-out: In vitro Affinity
mice = experiment: Prepulse inhibition, pharmacological model using amphetamine; assay type: in vivo; settings: data not shown
5-HT2C = target: T5, 5-HT2C (Homo sapiens, UniProt P28335); experiment: PDSP receptor functional assay; assay type: cell-based
T5 construct: expressed in transfected cells
T5 sequence (P28335 33-458): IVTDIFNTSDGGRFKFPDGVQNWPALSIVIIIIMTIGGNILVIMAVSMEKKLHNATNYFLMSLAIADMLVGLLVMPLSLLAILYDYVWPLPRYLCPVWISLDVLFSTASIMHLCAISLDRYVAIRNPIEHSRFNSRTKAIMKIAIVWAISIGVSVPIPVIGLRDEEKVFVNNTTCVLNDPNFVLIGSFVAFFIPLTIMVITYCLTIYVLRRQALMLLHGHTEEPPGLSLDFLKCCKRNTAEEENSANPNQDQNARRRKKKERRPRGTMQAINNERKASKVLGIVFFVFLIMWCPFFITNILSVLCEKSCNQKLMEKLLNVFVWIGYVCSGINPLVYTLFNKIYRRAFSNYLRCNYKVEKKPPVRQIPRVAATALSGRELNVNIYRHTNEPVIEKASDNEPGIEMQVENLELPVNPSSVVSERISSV

dopamine D2 receptor = target: T6, dopamine D2 receptor (Homo sapiens, UniProt P14416); assay type: cell-based
T6 construct: expressed in transfected cells; host or cells: HEKT cells (ATCC)

MOR = MOR (Homo sapiens, UniProt P35372); experiment: PDSP radioligand competition binding; settings: radioligand [^3H]DAMGO; read-out: In vitro Affinity
5-HT1A = target: T7, 5-HT1A (Homo sapiens, UniProt P08908); experiment: PDSP receptor functional assay; assay type: cell-based
T7 construct: expressed in transfected cells
T7 sequence (P08908 1-422): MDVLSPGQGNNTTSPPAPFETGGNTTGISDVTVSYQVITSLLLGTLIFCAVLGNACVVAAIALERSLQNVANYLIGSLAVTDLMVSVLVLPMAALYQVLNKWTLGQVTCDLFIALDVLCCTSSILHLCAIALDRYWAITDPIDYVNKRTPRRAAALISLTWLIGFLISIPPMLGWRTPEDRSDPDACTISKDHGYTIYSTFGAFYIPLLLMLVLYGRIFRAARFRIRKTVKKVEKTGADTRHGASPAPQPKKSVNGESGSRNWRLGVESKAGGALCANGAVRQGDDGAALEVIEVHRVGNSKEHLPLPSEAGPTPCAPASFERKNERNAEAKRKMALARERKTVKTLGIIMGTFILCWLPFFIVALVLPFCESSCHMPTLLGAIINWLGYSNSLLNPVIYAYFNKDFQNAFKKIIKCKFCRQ

D5, sequence (P21918 whole entry, looked up): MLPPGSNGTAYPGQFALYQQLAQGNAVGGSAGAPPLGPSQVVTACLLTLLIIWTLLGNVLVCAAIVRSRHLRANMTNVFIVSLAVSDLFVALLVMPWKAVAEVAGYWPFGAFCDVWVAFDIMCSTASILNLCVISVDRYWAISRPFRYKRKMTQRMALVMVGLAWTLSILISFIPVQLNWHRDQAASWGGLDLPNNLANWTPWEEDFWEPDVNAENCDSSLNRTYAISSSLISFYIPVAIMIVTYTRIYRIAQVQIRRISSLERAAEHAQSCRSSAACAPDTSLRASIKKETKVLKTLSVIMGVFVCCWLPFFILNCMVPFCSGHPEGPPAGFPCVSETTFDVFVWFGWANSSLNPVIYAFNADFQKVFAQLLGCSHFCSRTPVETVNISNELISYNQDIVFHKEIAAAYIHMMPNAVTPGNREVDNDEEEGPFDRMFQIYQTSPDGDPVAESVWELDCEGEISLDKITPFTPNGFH
T2 sequence (P28223 whole entry, looked up): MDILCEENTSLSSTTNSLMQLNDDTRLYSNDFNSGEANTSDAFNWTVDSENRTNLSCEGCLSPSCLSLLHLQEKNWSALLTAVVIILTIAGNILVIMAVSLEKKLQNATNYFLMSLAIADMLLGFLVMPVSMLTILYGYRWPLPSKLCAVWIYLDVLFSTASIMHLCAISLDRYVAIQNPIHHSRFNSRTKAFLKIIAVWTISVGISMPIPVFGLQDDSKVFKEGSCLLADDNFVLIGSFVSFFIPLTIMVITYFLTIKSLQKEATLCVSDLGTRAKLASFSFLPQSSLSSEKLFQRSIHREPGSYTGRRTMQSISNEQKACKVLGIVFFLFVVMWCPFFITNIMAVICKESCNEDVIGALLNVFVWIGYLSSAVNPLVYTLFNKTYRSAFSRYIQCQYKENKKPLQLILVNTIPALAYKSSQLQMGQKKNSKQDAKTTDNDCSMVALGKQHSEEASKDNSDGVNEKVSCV
T6 sequence (P14416 whole entry, species assumed): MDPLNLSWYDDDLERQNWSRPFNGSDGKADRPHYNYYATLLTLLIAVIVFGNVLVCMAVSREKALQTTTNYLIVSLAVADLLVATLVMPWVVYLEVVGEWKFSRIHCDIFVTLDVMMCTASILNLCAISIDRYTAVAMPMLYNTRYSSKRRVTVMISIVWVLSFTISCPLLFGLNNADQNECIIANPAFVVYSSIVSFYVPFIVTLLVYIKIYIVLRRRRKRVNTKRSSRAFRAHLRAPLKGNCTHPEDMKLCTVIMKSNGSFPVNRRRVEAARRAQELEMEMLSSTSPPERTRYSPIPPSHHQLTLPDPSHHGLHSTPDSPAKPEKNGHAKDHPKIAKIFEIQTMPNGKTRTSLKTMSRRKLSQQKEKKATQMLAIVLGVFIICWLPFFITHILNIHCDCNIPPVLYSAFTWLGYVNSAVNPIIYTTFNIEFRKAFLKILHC
α1B, sequence (P35368 whole entry): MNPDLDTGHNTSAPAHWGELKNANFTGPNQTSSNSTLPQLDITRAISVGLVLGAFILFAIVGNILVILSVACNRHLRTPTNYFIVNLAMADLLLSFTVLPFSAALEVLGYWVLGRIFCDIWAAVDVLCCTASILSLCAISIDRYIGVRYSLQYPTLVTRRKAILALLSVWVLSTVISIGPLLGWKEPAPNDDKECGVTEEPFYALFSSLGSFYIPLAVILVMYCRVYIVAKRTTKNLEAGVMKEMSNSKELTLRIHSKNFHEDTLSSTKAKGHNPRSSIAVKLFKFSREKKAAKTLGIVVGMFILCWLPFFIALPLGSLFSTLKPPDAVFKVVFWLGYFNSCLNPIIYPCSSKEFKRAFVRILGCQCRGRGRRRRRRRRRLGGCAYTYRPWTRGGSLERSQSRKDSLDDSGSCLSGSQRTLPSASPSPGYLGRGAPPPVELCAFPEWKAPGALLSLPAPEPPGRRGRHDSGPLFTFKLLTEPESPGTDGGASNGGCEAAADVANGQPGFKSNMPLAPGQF
β3-AR, sequence (P13945 whole entry): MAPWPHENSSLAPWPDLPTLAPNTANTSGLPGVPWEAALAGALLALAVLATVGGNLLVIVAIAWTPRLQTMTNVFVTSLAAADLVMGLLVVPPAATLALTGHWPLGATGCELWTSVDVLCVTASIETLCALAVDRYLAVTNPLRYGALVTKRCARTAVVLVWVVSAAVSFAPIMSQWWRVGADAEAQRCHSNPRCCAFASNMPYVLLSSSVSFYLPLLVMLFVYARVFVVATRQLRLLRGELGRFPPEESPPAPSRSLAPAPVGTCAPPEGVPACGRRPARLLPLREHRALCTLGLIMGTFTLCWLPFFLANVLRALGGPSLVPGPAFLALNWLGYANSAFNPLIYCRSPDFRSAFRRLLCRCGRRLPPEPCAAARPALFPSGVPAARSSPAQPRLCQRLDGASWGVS
T3 sequence (Q05940 whole entry): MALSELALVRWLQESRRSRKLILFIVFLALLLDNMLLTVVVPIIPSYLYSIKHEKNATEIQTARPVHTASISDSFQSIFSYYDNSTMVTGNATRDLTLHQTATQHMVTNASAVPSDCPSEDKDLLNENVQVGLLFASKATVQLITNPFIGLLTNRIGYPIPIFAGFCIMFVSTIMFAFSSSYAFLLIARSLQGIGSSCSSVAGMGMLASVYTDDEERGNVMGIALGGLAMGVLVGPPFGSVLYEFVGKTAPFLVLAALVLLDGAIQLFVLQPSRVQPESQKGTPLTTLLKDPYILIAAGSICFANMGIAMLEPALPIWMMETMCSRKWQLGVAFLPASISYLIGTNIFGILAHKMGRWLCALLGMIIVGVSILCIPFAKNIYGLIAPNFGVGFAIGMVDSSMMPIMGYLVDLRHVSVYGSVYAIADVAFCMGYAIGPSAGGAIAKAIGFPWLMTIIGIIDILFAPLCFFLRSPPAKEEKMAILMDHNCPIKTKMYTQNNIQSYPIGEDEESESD
β1-AR, sequence (P08588 whole entry): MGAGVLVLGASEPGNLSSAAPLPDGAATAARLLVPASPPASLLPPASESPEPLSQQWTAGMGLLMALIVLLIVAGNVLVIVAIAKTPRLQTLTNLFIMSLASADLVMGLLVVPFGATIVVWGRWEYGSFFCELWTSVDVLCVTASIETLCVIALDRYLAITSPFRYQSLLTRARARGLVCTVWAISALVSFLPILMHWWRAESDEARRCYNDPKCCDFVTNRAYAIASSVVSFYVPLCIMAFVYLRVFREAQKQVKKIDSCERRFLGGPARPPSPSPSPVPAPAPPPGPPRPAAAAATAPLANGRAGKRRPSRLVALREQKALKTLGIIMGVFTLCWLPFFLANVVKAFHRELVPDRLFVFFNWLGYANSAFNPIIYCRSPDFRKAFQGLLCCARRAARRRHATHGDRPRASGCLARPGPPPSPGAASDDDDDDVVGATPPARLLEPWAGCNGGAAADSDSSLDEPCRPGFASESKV
MOR, sequence (P35372 whole entry): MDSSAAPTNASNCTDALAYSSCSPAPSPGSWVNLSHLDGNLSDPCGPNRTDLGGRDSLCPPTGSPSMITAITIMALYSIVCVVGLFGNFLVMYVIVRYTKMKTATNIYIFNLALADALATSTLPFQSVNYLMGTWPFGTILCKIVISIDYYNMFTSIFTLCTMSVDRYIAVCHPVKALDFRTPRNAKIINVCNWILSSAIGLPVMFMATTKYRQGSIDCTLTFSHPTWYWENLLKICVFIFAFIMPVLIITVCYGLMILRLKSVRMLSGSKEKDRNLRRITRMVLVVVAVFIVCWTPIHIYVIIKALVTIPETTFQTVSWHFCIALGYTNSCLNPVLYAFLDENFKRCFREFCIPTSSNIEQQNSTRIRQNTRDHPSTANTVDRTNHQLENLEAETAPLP
T4 sequence (P34969 whole entry, species assumed): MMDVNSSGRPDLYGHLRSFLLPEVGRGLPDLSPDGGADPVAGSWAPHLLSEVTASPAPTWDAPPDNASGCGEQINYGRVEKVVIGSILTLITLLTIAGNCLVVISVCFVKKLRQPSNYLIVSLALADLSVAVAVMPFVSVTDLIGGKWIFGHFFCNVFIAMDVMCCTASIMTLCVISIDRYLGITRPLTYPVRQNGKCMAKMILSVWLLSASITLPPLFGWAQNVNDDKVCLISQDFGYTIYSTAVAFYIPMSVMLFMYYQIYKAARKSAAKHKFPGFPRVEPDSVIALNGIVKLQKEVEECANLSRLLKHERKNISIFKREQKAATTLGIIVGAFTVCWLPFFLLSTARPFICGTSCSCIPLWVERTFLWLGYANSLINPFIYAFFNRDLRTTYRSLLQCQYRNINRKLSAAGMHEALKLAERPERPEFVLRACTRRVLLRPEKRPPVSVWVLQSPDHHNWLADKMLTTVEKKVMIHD
α1A, sequence (P35348 whole entry): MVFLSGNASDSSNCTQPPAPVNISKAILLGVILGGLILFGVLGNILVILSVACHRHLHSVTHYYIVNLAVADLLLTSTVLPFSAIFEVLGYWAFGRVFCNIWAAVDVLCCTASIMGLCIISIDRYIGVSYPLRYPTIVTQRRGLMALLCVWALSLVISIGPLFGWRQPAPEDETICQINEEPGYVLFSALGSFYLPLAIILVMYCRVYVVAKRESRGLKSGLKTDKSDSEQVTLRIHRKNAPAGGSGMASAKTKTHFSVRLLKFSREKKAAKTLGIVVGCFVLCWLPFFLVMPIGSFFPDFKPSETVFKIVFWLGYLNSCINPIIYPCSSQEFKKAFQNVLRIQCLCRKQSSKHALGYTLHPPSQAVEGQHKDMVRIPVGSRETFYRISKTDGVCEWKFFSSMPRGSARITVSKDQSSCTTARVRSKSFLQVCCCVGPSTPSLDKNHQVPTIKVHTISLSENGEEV

In the case of `COc1cc2c3c(c1OC)-c1ccccc1C[C@H]3N(C)CC2` [nuciferine], the catalepsy (male C57BL/6J mice [1]; 10.0 mg/kg, any of the time-points examined) is reported as “did not produce catalepsy”, the latency to movement (male C57BL/6J mice [1]; 30 min post-injection) is reported as 2.3 ± 2.3 s and the latency to movement (male C57BL/6J mice [1]; 60 min post-injection) is reported as 4.7 ± 2.6 s. The PCP-stimulated locomotor activity (male C57BL/6J mice [2]; 3 mg/kg i.p. before 6.0 mg/kg PCP) was “failed to significantly alter the PCP-induced hyperlocomotion”, the PCP-stimulated locomotor activity (male C57BL/6J mice [2]; 10.0 mg/kg i.p. before 6.0 mg/kg PCP) was “significantly blocked” and the Ki (5-HT6) was 268 nM. The “Function Type” value (5-HT2A) was “Antagonist”, the IC50 (5-HT2A; 5-HT2A antagonist activity) was 478 nM and the EC50 (5-HT2A; antagonist) was 478 nM. For the same molecule, the Ki (H2) was 1660 nM, the Ki (α1A) was 1390 nM and the Ki (5-HT5A) was 1110 nM. The DOI-induced head-twitches (male C57BL/6J mice [3]; 1 mg/kg i.p., 15 min prior to 1.0 mg/kg DOI) was “no statistical effect”, the DOI-induced head-twitches (male C57BL/6J mice [3]; 3 mg/kg i.p., 15 min prior to 1.0 mg/kg DOI, at 5, 10, 15 and 20 min) was “decreased head-twitches; also recorded: statistically significant (p<0.05) reductions in the numbers of head-twitches” and the DOI-induced head-twitches (male C57BL/6J mice [3]; 3 mg/kg i.p., 30 min prior to DOI) was “statistically significant (p<0.05) reductions in the numbers of head-twitches”. For the same molecule, the DOI-induced head-twitches (male C57BL/6J mice [3]; 3 mg/kg i.p., 45 min prior to DOI) was “failed to show significant alterations in head-twitches”, the DOI-induced head-twitches (male C57BL/6J mice [3]; 3 mg/kg i.p., 60 min prior to DOI) was “failed to show significant alterations in head-twitches” and the DOI-induced head-twitches (male C57BL/6J mice [3]; 3 mg/kg s.c., 15 min prior to 1.0 mg/kg DOI, at 10, 15 and 20 min) was “attenuated DOI-induced head-twitches”. The DOI-induced head-twitches (male C57BL/6J mice [3]; 10 mg/kg i.p., 15 min prior to 1.0 mg/kg DOI, at 5, 10, 15 and 20 min) was “decreased head-twitches”, the “effect on DA uptake in isolated vesicles” value (hVMAT2) was “no effect” and the Ki (β3-AR) was 1100 nM. For the same molecule, the Ki (β1-AR) was 7150 nM, the Ki (α1B) was 2000 nM and the EC50 (D5) was 2600 nM. For the same molecule, the “Function Type” value (D5) was “Partial agonist”, the Emax (D5; partial agonist efficacy, read-out: maximal response) was 50% and the Ki (5-HT7) was 49.8 nM. The Ki (5-HT1D) was 518 nM, the “PPI in the pharmacological model using amphetamine” value (mice) was “failed to normalize PPI” and the “Function Type” value (5-HT2C) was “Antagonist”. The IC50 (5-HT2C; 5-HT2C antagonist) was 131 nM, the EC50 (5-HT2C; antagonist) was 131 nM and the “Function Type” value (dopamine D2 receptor) was “Partial agonist”. The Emax (dopamine D2 receptor; D2 partial agonist activity, Fig 4A) was 67 % of dopamine, the Ki (MOR) was 9550 nM and the “Function Type” value (5-HT1A) was “Agonist”. The EC50 (5-HT1A; 5-HT1A agonist, read-out: EC50) was 3200 nM and the EC50 (5-HT1A; agonist, read-out: Functional EC50) was 3230 nM.
